Measured values: ChEMBL document CHEMBL1201862, “PubChem BioAssay data set” (2004)
Activity calls are given as the source filed them.

How the values were obtained:
CHO-K1 = assay: (§1) Counterscreen for antagonists of the orexin 1 receptor (OX1R; HCRTR1): Homogeneous time resolved fluorescence (HTRF)-based cell-based dose response assay to identify antagonists of the parental CHO-K1 cell line. [Related pubchem assays (depositor defined):AID434989, AID435008, AID463079, AID485270, AID492963, AID492964, AID492965, AID493232, AID504699, AID504701]; type: functional; conditions: Cricetulus griseus
Orexin receptor type 2 [1] = biological target: T1, Orexin receptor type 2 (Homo sapiens, UniProt O43614); assay: Counterscreen assay for antagonists of the orexin 1 receptor (OX1R; HCRTR1): Homogeneous Time Resolved Fluorescence (HTRF)-based cell-based dose response assay for antagonists of the orexin 2 receptor (OX2R; HCRTR2), run by assay provider.; type: functional
T1 sequence (O43614 whole entry): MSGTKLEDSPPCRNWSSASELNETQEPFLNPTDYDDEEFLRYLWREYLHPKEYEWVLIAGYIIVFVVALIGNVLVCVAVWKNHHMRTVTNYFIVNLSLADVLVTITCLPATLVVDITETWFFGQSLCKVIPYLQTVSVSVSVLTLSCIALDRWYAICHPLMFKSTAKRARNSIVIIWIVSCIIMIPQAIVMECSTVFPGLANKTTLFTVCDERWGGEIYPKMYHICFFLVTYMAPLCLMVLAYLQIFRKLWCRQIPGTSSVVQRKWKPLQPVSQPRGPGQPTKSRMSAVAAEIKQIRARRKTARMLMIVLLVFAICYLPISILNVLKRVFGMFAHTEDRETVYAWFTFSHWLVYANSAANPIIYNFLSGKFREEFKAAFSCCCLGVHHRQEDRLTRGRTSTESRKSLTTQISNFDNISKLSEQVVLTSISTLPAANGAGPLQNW

Orexin receptor type 2 [2] = biological target: T1, Orexin receptor type 2; assay: Counterscreen assay for antagonists of the orexin 1 receptor (OX1R; HCRTR1): Fluorescence-based cell-based dose response assay for antagonists of the orexin 2 receptor (OX2R; HCRTR2), run by assay provider.; type: functional
[3] = biological target: T2, Orexin/Hypocretin receptor type 1 (Homo sapiens, UniProt O43613); assay: Homogeneous Time Resolved Fluorescence (HTRF)-based cell-based high throughput dose response assay for antagonists of the orexin 1 receptor (OX1R; HCRTR1). [Related pubchem assays (depositor defined):AID434989, AID435008, AID463079, AID485270, AID492963, AID492964, AID492965, AID493232, AID504717, AID504718]; type: functional
T2 sequence (O43613 whole entry): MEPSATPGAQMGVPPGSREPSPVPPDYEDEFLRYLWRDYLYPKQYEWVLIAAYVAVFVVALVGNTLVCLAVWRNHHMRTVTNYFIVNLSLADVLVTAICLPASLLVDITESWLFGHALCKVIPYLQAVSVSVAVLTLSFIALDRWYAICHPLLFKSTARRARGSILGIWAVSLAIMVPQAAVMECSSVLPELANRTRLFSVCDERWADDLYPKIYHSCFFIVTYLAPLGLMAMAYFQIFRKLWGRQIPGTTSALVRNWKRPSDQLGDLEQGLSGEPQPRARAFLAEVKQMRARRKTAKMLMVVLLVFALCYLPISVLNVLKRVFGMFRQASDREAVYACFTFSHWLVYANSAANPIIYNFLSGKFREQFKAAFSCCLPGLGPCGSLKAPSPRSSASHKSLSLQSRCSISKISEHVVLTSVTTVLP

[4] = biological target: T2, Orexin/Hypocretin receptor type 1; assay: Fluorescence-based cell-based high throughput dose response assay for antagonists of the orexin 1 receptor (OX1R; HCRTR1). [Related pubchem assays (depositor defined):AID434989, AID435008, AID463079, AID485270, AID492963, AID492964, AID492965, AID493232, AID504717, AID504718]; type: functional
[5] = as §1, with “Fluorescence-based” for “Homogeneous time resolved fluorescence (HTRF)-based”, “cell-based high throughput” for “cell-based”, “CHO” for “CHO-K1”; type: functional
[6] = biological target: Cell division cycle 7-related protein kinase (Homo sapiens, UniProt O00311); type: functional;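 also: value obtained from a kinome-wide kinase panel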
Chain of Cell division cycle 7-related protein kinase (O00311 whole entry): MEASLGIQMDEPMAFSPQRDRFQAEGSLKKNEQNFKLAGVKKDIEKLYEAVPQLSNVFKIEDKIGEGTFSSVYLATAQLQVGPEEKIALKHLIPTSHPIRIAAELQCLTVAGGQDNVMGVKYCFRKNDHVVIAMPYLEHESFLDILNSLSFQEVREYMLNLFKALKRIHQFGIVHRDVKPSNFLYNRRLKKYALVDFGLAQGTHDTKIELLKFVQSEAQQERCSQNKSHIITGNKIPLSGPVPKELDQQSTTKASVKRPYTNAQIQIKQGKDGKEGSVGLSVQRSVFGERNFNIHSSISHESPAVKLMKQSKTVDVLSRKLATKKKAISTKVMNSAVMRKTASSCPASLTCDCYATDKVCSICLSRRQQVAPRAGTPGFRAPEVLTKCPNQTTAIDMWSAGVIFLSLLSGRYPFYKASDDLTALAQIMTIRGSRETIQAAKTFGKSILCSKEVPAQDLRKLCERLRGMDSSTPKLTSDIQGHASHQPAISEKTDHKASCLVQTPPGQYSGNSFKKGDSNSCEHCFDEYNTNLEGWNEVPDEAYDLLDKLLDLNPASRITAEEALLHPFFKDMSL

[7] = biological target: Cyclin-dependent kinase 19 (Homo sapiens, UniProt Q9BWU1); assay: Navigating the Kinome. Panel member name: CDC2L6; type: functional
Chain of Cyclin-dependent kinase 19 (Q9BWU1 whole entry): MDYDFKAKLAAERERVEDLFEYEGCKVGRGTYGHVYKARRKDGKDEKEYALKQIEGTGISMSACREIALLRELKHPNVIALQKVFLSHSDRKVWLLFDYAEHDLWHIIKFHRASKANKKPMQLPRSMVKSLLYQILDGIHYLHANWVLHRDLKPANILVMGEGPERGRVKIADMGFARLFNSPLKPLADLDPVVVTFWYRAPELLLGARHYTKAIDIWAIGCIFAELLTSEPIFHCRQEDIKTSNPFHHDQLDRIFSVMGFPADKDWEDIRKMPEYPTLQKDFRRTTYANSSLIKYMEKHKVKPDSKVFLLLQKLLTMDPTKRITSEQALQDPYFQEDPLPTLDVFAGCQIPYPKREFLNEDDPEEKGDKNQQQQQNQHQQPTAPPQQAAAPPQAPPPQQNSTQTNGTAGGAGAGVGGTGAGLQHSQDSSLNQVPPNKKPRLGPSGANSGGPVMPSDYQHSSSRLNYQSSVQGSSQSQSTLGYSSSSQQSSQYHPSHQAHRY

[8] = biological target: T3, Neuropeptides B/W receptor type 1 (Homo sapiens, UniProt P48145); assay: GPR7 antagonist potency, late-stage follow-up, cell-based, fluorescence, dose response, set 5 (AID 588566); type: functional
T3 sequence (P48145 whole entry): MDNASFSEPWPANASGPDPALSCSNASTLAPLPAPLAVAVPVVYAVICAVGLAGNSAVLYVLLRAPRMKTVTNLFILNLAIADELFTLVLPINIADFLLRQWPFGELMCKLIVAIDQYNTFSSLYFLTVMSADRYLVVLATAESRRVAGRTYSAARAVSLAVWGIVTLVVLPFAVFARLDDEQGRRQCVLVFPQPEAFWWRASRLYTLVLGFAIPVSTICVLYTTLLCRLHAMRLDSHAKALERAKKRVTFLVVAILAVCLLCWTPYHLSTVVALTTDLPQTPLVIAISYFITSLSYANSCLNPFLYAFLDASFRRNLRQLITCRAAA

[9] = biological target: Melanin-concentrating hormone receptor 1 (Homo sapiens, UniProt Q99705); assay: Late-stage fluorescence-based counterscreen for antagonists of the G-protein coupled receptor 7 (GPR7): cell-based dose response assay to identify antagonists of the melanin-concentrating hormone receptor 1 (MCHR1) Set 5.; type: functional
Chain of Melanin-concentrating hormone receptor 1 (Q99705 whole entry): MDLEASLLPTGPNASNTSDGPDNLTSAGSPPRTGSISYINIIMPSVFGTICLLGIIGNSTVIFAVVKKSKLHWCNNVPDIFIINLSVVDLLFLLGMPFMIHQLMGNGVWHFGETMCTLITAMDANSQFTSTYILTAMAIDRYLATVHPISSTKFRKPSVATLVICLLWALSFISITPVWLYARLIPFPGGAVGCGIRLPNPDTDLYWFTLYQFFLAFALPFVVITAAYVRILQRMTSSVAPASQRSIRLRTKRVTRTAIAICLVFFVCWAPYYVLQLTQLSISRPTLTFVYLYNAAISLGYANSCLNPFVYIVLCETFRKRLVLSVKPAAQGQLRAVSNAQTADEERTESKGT

[10] = biological target: T4, High affinity choline transporter 1 (Homo sapiens, UniProt Q9GZV3); assay: CHT inhibitors, dose response, cell-based, 10-point CRC, membrane potential dye (AID 588401); type: functional;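 also: membrane potential dye fluorescence of choline-evoked depolarization via CHT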
T4 sequence (Q9GZV3 whole entry): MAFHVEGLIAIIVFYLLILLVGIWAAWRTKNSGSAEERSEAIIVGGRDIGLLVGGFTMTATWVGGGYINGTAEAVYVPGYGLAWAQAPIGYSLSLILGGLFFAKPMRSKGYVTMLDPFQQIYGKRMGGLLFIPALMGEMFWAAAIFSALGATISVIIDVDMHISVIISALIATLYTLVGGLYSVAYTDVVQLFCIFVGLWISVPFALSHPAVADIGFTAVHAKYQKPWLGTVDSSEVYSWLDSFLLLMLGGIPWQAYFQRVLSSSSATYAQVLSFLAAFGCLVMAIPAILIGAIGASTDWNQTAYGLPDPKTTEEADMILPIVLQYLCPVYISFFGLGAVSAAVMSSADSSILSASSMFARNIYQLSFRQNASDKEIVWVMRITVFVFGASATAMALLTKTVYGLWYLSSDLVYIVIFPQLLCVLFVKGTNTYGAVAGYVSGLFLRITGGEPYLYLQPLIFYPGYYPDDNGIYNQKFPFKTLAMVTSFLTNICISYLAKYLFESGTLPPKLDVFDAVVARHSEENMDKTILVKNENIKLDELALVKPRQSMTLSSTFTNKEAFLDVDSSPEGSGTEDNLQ

P388/ADR = assay: cells; type: functional; conditions: Mus musculus
Procathepsin L = Procathepsin L (Homo sapiens, UniProt P07711)
Chain of Procathepsin L (P07711 whole entry): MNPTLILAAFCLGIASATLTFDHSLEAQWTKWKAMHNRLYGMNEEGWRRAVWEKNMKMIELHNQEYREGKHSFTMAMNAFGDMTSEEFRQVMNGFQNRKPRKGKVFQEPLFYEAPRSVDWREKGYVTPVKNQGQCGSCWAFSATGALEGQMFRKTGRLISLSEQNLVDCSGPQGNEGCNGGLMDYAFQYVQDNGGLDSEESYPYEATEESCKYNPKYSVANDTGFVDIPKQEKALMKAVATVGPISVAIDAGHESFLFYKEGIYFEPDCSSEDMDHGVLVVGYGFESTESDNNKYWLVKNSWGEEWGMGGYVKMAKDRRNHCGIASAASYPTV

SN12K1 = assay: cells; type: functional; conditions: Homo sapiens
[11] = biological target: T4, High affinity choline transporter 1; assay: CHT inhibitors, dose response, cell-based, 5-point CRC, membrane potential dye (AID 504840); type: functional
P388 = assay: cells; type: functional; conditions: Mus musculus
Aspartyl aminopeptidase = Aspartyl aminopeptidase (Plasmodium falciparum 3D7, UniProt Q8I2J3)
Chain of Aspartyl aminopeptidase (Q8I2J3 whole entry): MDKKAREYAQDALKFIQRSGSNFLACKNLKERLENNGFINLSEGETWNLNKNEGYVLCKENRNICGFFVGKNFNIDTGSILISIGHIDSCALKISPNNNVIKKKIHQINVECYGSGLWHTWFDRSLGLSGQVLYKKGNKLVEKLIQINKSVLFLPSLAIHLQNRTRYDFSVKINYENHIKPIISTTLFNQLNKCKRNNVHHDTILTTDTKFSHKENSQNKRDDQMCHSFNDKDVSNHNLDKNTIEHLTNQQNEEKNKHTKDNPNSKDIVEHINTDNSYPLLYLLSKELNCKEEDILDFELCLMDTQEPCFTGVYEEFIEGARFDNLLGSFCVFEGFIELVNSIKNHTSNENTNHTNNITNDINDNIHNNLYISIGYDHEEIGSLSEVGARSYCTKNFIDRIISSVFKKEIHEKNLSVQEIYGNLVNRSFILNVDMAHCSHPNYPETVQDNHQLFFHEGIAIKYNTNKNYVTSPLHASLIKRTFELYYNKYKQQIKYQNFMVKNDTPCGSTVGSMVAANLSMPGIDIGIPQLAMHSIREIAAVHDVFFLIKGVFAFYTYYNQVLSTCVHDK

[12] = biological target: DNA dC->dU-editing enzyme APOBEC-3A (Homo sapiens, UniProt P31941); assay: SAR analysis of small molecule inhibitors of APOBEC3A DNA Deaminase via a fluorescence-based single-stranded DNA deaminase assay.; type: functional; conditions: read-out: IC50_Mean
Chain of DNA dC->dU-editing enzyme APOBEC-3A (P31941 whole entry): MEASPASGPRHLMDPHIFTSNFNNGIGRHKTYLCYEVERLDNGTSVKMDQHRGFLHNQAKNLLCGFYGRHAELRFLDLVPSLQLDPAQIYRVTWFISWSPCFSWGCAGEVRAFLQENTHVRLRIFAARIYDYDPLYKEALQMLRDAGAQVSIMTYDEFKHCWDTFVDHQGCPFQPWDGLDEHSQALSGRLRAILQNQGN

[13] = biological target: DNA dC->dU-editing enzyme APOBEC-3G (Homo sapiens, UniProt Q9HC16); assay: APOBEC3G deaminase inhibitors, SAR follow-up, biochemical, fluorescence, single-stranded DNA substrate (AID 602136); type: functional; conditions: read-out: IC50_Mean
Aurora kinase B = Aurora kinase B (Homo sapiens, UniProt Q96GD4); type: functional
[14] = biological target: Serine/threonine-protein kinase 17A (Homo sapiens, UniProt Q9UEE5); type: functional
Chain of Serine/threonine-protein kinase 17A (Q9UEE5 whole entry): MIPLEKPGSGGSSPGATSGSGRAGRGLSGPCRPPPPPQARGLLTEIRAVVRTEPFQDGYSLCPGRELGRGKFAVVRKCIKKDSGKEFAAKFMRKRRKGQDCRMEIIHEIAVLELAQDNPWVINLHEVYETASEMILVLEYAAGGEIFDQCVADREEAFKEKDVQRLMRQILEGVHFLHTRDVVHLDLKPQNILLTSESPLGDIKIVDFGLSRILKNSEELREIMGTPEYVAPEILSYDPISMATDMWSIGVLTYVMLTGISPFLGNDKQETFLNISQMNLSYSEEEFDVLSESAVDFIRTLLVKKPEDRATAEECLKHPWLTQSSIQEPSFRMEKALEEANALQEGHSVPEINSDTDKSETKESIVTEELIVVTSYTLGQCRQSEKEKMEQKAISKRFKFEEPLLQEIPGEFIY

[15] = biological target: 26S proteasome non-ATPase regulatory subunit 14 (Homo sapiens, UniProt O00487); assay: inhibition of proteasome subunit RPN11 – biochemical, fluorescence polarization, uHTS hits, confirmation (AID 602368); type: functional
Chain of 26S proteasome non-ATPase regulatory subunit 14 (O00487 whole entry): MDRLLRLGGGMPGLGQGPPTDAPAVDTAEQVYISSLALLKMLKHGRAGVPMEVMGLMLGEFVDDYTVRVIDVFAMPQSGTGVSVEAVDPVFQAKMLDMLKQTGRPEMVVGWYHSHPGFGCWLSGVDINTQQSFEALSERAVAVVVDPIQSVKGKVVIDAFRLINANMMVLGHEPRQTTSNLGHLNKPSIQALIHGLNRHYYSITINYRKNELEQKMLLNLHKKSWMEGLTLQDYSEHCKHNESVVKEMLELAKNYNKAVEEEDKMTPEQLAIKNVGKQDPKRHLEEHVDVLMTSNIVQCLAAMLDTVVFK

Prothrombin = Prothrombin (Bos taurus, UniProt P00735); assay: thrombin inhibition, dose response, biochemical, fluorescence polarization, uHTS hits (AID 602369); type: functional
[16] = biological target: 72 kDa type IV collagenase (Homo sapiens, UniProt P08253); assay: Dose Response validation of uHTS RPN11 inhibitor hits using a MMP-2 Fluorescence assay.; type: functional
[17] = biological target: Serine/threonine-protein kinase pim-1 (Homo sapiens, UniProt P11309); type: functional
[18] = biological target: Serine/threonine-protein kinase pim-3 (Homo sapiens, UniProt Q86V86); type: functional;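 also: value obtained as one member of a broad kinase panel profiling effort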
[19] = biological target: Luciferin 4-monooxygenase (Photinus pyralis, UniProt P08659); assay: firefly luciferase enzyme inhibitors, dose response, biochemical, dry powder samples, plate reader (AID 588451)
Chain of Luciferin 4-monooxygenase (P08659 whole entry): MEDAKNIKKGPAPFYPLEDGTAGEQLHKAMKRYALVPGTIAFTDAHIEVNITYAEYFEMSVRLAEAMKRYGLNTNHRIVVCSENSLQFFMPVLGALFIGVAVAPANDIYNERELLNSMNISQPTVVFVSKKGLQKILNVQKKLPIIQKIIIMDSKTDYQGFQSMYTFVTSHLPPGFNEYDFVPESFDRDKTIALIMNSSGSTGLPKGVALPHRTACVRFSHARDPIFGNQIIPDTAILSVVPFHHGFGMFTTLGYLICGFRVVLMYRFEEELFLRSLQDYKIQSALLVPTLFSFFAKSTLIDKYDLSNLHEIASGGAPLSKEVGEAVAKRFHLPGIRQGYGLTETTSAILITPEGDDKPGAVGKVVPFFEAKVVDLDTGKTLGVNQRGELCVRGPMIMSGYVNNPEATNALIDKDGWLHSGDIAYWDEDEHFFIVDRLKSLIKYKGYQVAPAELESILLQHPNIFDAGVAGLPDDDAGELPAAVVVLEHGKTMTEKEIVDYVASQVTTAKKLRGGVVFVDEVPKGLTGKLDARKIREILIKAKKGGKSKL

[20] = biological target: T5, Microphthalmia-associated transcription factor (Homo sapiens, UniProt O75030); assay: TRPM1 promoter luciferase signal decrease, dose response, MITF inhibitor project, cell-based, SK-MEL-5, cherry-picked, set 3 (AID 493073); type: functional
T5 sequence (O75030 whole entry): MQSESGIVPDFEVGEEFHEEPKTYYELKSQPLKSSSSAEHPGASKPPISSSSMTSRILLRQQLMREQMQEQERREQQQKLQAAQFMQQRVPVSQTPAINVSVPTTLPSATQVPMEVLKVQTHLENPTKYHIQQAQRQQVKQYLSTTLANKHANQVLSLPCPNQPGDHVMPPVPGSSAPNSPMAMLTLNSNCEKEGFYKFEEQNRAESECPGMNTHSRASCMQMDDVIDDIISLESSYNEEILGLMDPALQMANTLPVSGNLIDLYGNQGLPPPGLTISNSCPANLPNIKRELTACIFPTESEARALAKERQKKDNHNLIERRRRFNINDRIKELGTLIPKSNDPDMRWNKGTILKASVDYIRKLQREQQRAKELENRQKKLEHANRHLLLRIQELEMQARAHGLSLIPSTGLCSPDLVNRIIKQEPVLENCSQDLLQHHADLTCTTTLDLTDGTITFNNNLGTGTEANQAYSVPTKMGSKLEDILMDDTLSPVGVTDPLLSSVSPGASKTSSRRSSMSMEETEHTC

H4 [21] = assay: Inhibitors of Prion Protein 5' UTR mRNA Measured in Cell-Based System Using Plate Reader - 2078-01_Inhibitor_Dose_DryPowder_Activity. [Related pubchem assays (depositor defined):AID488894]; type: functional; conditions: Homo sapiens
[22] = biological target: T6, Heat shock factor protein 1 (Mus musculus, UniProt P38532); assay: inhibition of MG132-induced HSE-luciferase signal, confirmation, cell-based, NIH3T3, luminescence, dose retest (AID 2382); type: functional;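 also: NIH3T3 fibroblasts with HSF1-driven luciferase reporter stressed by proteasome inhibitor MG132; luminescence from HSF1-driven luciferase expression after 8 hours of MG132 stress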
T6 sequence (P38532 whole entry): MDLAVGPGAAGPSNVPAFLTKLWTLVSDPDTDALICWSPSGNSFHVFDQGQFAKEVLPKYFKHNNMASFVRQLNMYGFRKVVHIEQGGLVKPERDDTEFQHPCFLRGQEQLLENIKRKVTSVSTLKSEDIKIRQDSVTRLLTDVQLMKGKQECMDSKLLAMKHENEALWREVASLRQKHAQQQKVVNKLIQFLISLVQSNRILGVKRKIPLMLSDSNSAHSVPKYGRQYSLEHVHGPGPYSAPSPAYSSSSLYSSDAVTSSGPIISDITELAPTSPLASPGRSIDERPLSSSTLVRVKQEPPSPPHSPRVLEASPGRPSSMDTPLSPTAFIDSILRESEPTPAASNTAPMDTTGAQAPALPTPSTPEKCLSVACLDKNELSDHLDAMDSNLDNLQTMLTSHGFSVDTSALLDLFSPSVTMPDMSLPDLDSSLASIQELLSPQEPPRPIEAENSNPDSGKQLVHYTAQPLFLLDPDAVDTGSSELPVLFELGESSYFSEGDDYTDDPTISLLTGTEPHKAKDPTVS

[23] = Shn3 3'UTR reporter inhibitors, dose response, cell-based, Clone20 osteoblasts, firefly luciferase, cherry-picked (AID 624132); type: functional;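 also: firefly luciferase luminescence from reporter carrying the Shn3 3'UTR in osteoblasts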
[24] = cytotoxicity in HEK-293T cells, dose response, cytotoxicity control for TCR NF-kB inhibitor project, luminescence, T-cell screen hits (AID 489026); type: functional, cell-based;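 also: cells exposed to compound about 14 hours before the viability readout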
H4 [25] = assay: Amyloid Precursor 5' UTR neuroblastoma cell reporter line Measured in Cell-Based System Using Plate Reader - 2078-04_Inhibitor_Dose_DryPowder_Activity. [Related pubchem assays (depositor defined):AID488894]; type: functional; conditions: Homo sapiens
H4 [26] = assay: inhibitors of control reporter signal in H4 cells – cell-based, plate reader, dry powder samples, counter-screen for prion reporter project, dose response (AID 540255); type: functional; conditions: Homo sapiens

Which IC50 (CHO-K1) does the source give for O=C(c1cccc(N2CCNC2=O)c1)N1CCCC(Nc2cccc(F)c2)C1 (centres undefined) here?
Its IC50 is > 66.2 µM (inactive).

What about the IC50 (Orexin receptor type 2 [1]) of the same molecule?
The IC50 was > 50 µM (inactive).

And the IC50 (Orexin receptor type 2 [2])?
The IC50 was > 88.8 µM (inactive).

And the IC50 [3]?
Its IC50 is 922 nM (active).

And the IC50 [4]?
Its IC50 is 9.83 µM (active).

And the IC50 [5]?
Its IC50 is > 49.7 µM (inactive).

For O=c1cc(-c2ccncc2)[nH]n1-c1ccc([N+](=O)[O-])cc1, which Ki [6] is on record?
The Ki was 501 nM (active).

What about the Ki [7] of the same molecule?
Its Ki is > 100 µM (inactive).

Which results are given for COc1ccc(Sc2cnn(Cc3cccc4ccccc34)c(=O)c2Cl)cc1?
IC50 [8]: 1.19 µM (active); IC50 [9]: 18.7 µM (inactive)

Which results are given for O=CN/C=C/c1cc(O)ccc1O [ERBSTATIN]?
IC50 [10]: 751 nM (active); GI50 (P388/ADR): 2.02 µM (inactive); IC50 (Procathepsin L): > 59.6 µM (not active); GI50 (SN12K1): 16.2 µM (inactive); IC50 [11]: 4.17 µM (active); GI50 (P388): 2.1 µM (inactive); IC50 (Aspartyl aminopeptidase): 3.72 µM (active)

Which IC50 [12] does the source give for Clc1cnc2[nH]c(SCc3nnc(-c4cccs4)o3)nc2c1 here?
The IC50 was > 99 µM (inactive).

And the IC50 [13]?
Its IC50 is 20.6 µM (inactive).

Which Ki (Aurora kinase B) does the source give for CN(C)CC(=O)Nc1n[nH]c2cc(-c3cn(Cc4ccccc4)nn3)ccc12 here?
Its Ki is 3.16 µM (active).

And the Ki [14]?
The Ki was 1 µM (active).

For Cc1ccc(-n2c(-c3ccco3)nc3nc4ccccc4nc32)cc1, which IC50 [15] is on record?
The IC50 was 24.1 µM (active).

What about the IC50 (Prothrombin) of the same molecule?
Its IC50 is 69 µM (active).

What about the IC50 [16] of the same molecule?
The IC50 was > 100 µM (inactive).

Which Ki [17] does the source give for NC(=O)c1ccc2c(ccn2-c2cccc(Cl)c2)c1 here?
Its Ki is 3.98 µM (active).

What about the Ki [18] of the same molecule?
The Ki was 3.98 µM (active).

Which AC50 [19] does the source give for Cc1ccc(NC(=O)c2cc3ccccc3oc2=O)cc1S(=O)(=O)N(C)C here?
Its AC50 is 89.3 nM (active).

And the AC50 [20]?
Its AC50 is 30 nM (active).

And the AC50 (H4 [21])?
The AC50 was 11 nM (active).

What about the EC50 [22] of the same molecule?
Its EC50 is < 160 nM (active).

And the AC50 [23]?
The AC50 was 1.29 µM (active).

And the IC50 [24]?
Its IC50 is > 80 µM (inactive).

And the AC50 (H4 [25])?
The AC50 was 1.25 nM (active).

And the AC50 (H4 [26])?
The AC50 was < 20 nM (active).
